Patent US8247429B2, “Tricyclic compound and pharmaceutical use thereof” (Takeda Pharmaceutical Company Limited, priority 2006, dated 2012)

Legend:
[1] = target: T1, human melatonin 1 receptors (human MT1 receptors) (Homo sapiens, UniProt P48039); assay: Melatonin receptor binding inhibitory test (2-[125I] Iodomelatonin), MT1; conditions: membrane fraction of CHO-hMelR7 cells, 25° C. for 2.5 hr
T1 construct: expressed in transfected cells; membrane fraction used
Protocol: (§1) Melatonin receptor binding inhibitory test
(1) Preparation of CHO-hMelR7 Cells Expressing Human Melatonin 1 Receptors
A cDNA fragment (SEQ ID NO: 1) encoding full-length of human melatonin 1 receptors (human MT1 receptors) was incorporated into expression vector pAKKO-111H (former name pAKKO1.11H; Biochim Biophys Acta. Vol. 1219(2), pp. 251-259, 1994) to give plasmid pAKKO-hMelR7 for animal cell expression. CHO/dhfr-cells (ATCC, #CRL-9096) were plated at a concentration of 0.3×10^6 cells/dish in a 6 cm culture dish (Becton Dickinson), and cultured under the conditions of 37° C., 5% CO2 for 48 hr. The cells were transfected with pAKKO-hMelR7 plasmid DNA (5 μg) using Cellphect Transfection Kit (Amersham, #27-9268-01). The transfected cells were cultured in Dulbecco's modified Eagle medium (DMEM) (Sigma, #D6046) containing 10% dialyzed FBS (Biowest, #S180D), 1× Non-Essential Amino Acid (Invitrogen, #11140-050) and 50 μg/mL Gentamycin (Invitrogen, #15750-060), and the cell line that stably expressed the plasmid gene was selected. By a receptor binding assay using 2-[^125I] Iodomelatonin, CHO-hMelR7 cell line showing specific binding of 2-[^125I] Iodomelatonin was selected from the obtained clones.
(§2) (3) Preparation of Cellular Membrane Fraction of CHO Cell (CHO-hMelR7 and CHO-hMT2) Stably Expressing Human MT1 and MT2 Receptors
(§3) CHO-hMelR7 and CHO-hMT2 cells were plated using Cellfactory (Nunc, #170009) under the conditions of 1×10^8 cells/2000 mL/flask. The cells were grown to confluent, and recovered by the following method. As the medium for CHO-hMelR7 and CHO-hMT2, MEM α containing 10% FBS and penicillin/streptomycin was used. […] of geneticin was added to the medium for CHO-hMT2.
(§4) The medium was discarded, cells were washed twice with 200 mL of EDTA/PBS(−), 200 mL of EDTA/PBS(−) was further added, and the cells were stood still at room temperature for 20 min until they were released. The cells were recovered in four 50 mL tubes (Becton Dickinson, #352070), and centrifuged at 1,500 rpm for 10 min at 4° C. using a low speed cooling centrifuge (Hitachi, CF7D2). The supernatant was discarded, the pellets in the four tubes were suspended in 10 mL of PBS(−), and combined in one tube (Becton Dickinson, #352070). The mixture was further centrifuged at 1,500 rpm for 10 min at 4° C., and the obtained pellets were suspended in 20 mL of ice-cooled homogenizing buffer [10 mM NaHCO3, 5 mM EDTA, Protease inhibitor Complete (Roche), pH 7.4]. The cell suspension was homogenized 3 times using a polytron homogenizer at 20,000 rpm for 30 sec. The obtained homogenate was centrifuged (2,000 rpm, 10 min, 4° C.) using a low speed cooling centrifuge. The supernatant was recovered in an ultracentrifugation tube and ultracentrifuged (40,000 rpm, 60 min, 4° C.) using an ultracentrifuge (Beckman, L-90K). To the obtained pellets was added a suspending buffer [50 mM Tris-HCl, 1 mM EDTA, Protease inhibitor Complete (Roche), pH 7.4], and the pellets were suspended by pipetting. The protein concentration of this suspension was measured, diluted to 2 mg/mL to give cellular membrane fractions of CHO-hMelR7 and CHO-hMT2 cells. The membrane fractions were dispensed to 1.5 mL tubes (Eppendorf, #0030120.086) by 100 μL, preserved in a freezer (−80° C.) and used for a binding assay. Protein was quantified using BCA protein assay kit (Pierce) with BSA as the standard.
(§5) (4) Preparation of Membrane Fraction Suspension
(§6) Immediately before use, the membrane fractions of CHO-hMelR7 and CHO-hMT2 cells of the above-mentioned (3) were diluted 20-fold with assay buffer (50 mM Tris-HCl, pH 7.7).
(§7) (5) Preparation of 2-[^125I] Iodomelatonin Solution
(§8) 2-[^125I] Iodomelatonin (#NEX236, PerkinElmer) was diluted with the assay buffer to 400 pM for MT1 and 1 nM for MT2.
(§9) The assay buffer (80 μL) of the above-mentioned (4) was added to each well of a 96-well plate (type 3363, Corning). […]

[2] = target: T2, human melatonin 2 receptors (human MT2 receptors) (Homo sapiens, UniProt P49286); assay: Melatonin receptor binding inhibitory test (2-[125I] Iodomelatonin), MT2; conditions: membrane fraction of CHO-hMT2 cells, 25° C. for 2.5 hr
T2 construct: expressed in transfected cells; membrane fraction used
T2 sequence (P49286 1-362): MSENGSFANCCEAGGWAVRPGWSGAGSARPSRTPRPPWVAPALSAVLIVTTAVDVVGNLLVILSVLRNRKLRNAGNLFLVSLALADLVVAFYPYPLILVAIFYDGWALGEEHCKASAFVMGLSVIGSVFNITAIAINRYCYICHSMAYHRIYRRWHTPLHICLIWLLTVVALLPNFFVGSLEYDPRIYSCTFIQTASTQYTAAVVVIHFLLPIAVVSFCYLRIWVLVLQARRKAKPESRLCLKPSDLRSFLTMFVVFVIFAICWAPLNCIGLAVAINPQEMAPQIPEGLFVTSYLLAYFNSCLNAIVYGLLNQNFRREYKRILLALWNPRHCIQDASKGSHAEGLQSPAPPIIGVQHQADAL
Protocol: as §1
(2) Preparation of CHO-hMT2 Cells Expressing Human Melatonin 2 Receptors
A cDNA fragment (SEQ ID NO: 2) encoding full-length of human melatonin 2 receptors (human MT2 receptors) was incorporated into expression vector pCMV-Script (Stratagene, #212220) to give the plasmid that was pCMV-human MT2 receptors expression vector for animal cell expression. CHO-K1 cells (ATCC, #CCL-61) were plated at the concentration of 1.5×10^5 cells/cm^2 in a 6 well plate (ASAHI TECHNO GLASS), and cultured under the conditions of 37° C., 5% CO2 for 24 hr. For gene transfection, solution obtained by blending pCMV-human MT2 receptors expression vector (1.9 μg), Lipofectamine Transfection Reagent (Invitrogen, #18324-012) (11.3 μL) and Minimum Essential Medium Eagle (MEM) medium (Sigma, M8042) (93.8 μL), and reacting at room temperature for 20 min was added to the cells per one well. The transfected cells were cultured in MEM medium containing 10% FBS (Life Technology) and 300 μg/mL Geneticin (GIBCO, #10131), and the cell line that stably expressed the plasmid gene was selected. By a receptor binding assay using 2-[^125I] Iodomelatonin, CHO-hMT2 cell line showing specific binding of 2-[^125I] Iodomelatonin was selected from the obtained clones.
as §2, §3, §4, §5, §6, §7, §8, §9

T1 sequence (P48039 whole entry): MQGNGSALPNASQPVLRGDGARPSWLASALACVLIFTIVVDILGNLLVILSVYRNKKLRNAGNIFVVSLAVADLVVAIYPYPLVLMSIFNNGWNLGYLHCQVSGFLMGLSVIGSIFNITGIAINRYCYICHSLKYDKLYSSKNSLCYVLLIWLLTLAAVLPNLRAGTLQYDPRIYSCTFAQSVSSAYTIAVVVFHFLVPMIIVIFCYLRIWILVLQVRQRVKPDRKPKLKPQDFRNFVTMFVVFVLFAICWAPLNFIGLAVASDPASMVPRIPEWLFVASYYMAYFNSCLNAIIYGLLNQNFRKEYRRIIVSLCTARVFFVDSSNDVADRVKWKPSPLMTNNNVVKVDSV

| SMILES | melting point [°C] | IC50 [1] [nM] | IC50 [2] [nM] |
| --- | --- | --- | --- |
| CC(=O)NCC=C1CCc2ccc3nn(C)cc3c21 [Example 1, N-[2-(2-methyl-6,7-dihydrocyclopenta[e]indazol-8(2H)-ylidene)ethyl]acetamide] | 200 to 202 | ≤ 100 | ≤ 100 |
| CC(=O)NCCC1CCc2ccc3nn(C)cc3c21 (stereo not shown) [Example 2, N-[2-(2-methyl-2,6,7,8-tetrahydrocyclopenta[e]indazol-8-yl)ethyl]acetamide] | – | ≤ 100 | ≤ 100 |
| CC(=O)NCC[C@@H]1CCc2ccc3nn(C)cc3c21 [Example 3] | – | ≤ 100 | ≤ 100 |
| CCC(=O)NCC=C1CCc2ccc3nn(C)cc3c21 [Example 5, N-[2-(2-methyl-6,7-dihydrocyclopenta[e]indazol-8(2H)-ylidene)ethyl]propanamide] | 185 to 187 | ≤ 100 | ≤ 100 |
| CCC(=O)NCCC1CCc2ccc3nn(C)cc3c21 (stereo not shown) [Example 6, N-[2-(2-methyl-2,6,7,8-tetrahydrocyclopenta[e]indazol-8-yl)ethyl]propanamide] | – | ≤ 100 | ≤ 100 |
| CC(=O)NCC=C1CCc2ccc3nn(C)c(C)c3c21 [Example 7, N-[2-(1,2-dimethyl-6,7-dihydrocyclopenta[e]indazol-8(2H)-ylidene)ethyl]acetamide] | 200 to 203 | ≤ 100 | ≤ 100 |
| CC(=O)NCCC1CCc2ccc3nn(C)c(C)c3c21 (stereo not shown) [Example 8, N-[2-(1,2-dimethyl-2,6,7,8-tetrahydrocyclopenta[e]indazol-8-yl)ethyl]acetamide] | 146 to 149 | ≤ 100 | ≤ 100 |
| CC(=O)NCCC1CCc2ccn3ncc(C)c3c21 (stereo not shown) [Example 10, N-[2-(1-methyl-8,9-dihydro-7H-cyclopenta[c]pyrazolo[1,5-a]pyridin-9-yl)ethyl]acetamide] | 121 to 122 | – | – |
| CCOC(=O)c1c(C)nn2ccc3c(c12)C(CCNC(C)=O)CC3 (stereo not shown) [Example 13, ethyl 9-[2-(acetylamino)ethyl]-2-methyl-8,9-dihydro-7H-cyclopenta[c]pyrazolo[1,5-a]pyridine-1-carboxylate] | 101 to 103 | – | – |
| CC(=O)NCCC1CCc2ccn3nc(C)cc3c21 (stereo not shown) [Example 18, N-[2-(2-methyl-8,9-dihydro-7H-cyclopenta[c]pyrazolo[1,5-a]pyridin-9-yl)ethyl]acetamide] | – | ≤ 100 | ≤ 100 |
| CC(=O)NCC[C@@H]1CCc2ccn3nc(C)cc3c21 [Example 19, N-{2-[(9S)-2-methyl-8,9-dihydro-7H-cyclopenta[c]pyrazolo[1,5-a]pyridin-9-yl]ethyl}acetamide] | – | ≤ 100 | ≤ 100 |
| CCc1cc2c3c(ccn2n1)CCC3CCNC(C)=O (stereo not shown) [Example 21, N-[2-(2-ethyl-8,9-dihydro-7H-cyclopenta[c]pyrazolo[1,5-a]pyridin-9-yl)ethyl]acetamide] | – | ≤ 100 | ≤ 100 |
| CC(=O)NCCC1CCc2ccc3nc(C)cn3c21 (stereo not shown) [Example 22, N-[2-(2-methyl-7,8-dihydro-6H-cyclopenta[e]imidazo[1,2-a]pyridin-8-yl)ethyl]acetamide] | – | ≤ 100 | ≤ 100 |
| CC(=O)NCC[C@@H]1CCc2ccc3nn(C)c(Br)c3c21 [Example 25, N-{2-[(8S)-1-bromo-2-methyl-2,6,7,8-tetrahydrocyclopenta[e]indazol-8-yl]ethyl}acetamide] | – | ≤ 100 | ≤ 100 |
| CCC(=O)NCCC1CCc2ccn3nc(C)cc3c21 (stereo not shown) [Example 32, N-[2-(2-methyl-8,9-dihydro-7H-cyclopenta[c]pyrazolo[1,5-a]pyridin-9-yl)ethyl]propanamide] | – | ≤ 100 | ≤ 100 |
| CC(=O)NCCC1CCc2ccn3nc(-c4ccccc4)cc3c21 (stereo not shown) [Example 34, N-[2-(2-phenyl-8,9-dihydro-7H-cyclopenta[c]pyrazolo[1,5-a]pyridin-9-yl)ethyl]acetamide] | 159 to 160 | – | ≤ 100 |
